# Test system: Plasmodiophora brassicae
# Assay: Cabbage clubroot control test, farm field (Example 2 / Comparative Example 2)
# Format: in vivo
# Parameters: key to Disease control value: control value = {1 − (treated severity/control severity)}×100; key to Disease severity: severity = Σ(plants×index 0–4)/(plants surveyed×4)×100
# Conditions: for Disease control value / Disease severity: 77 days after settled planting
# Excerpt: Disease severity={Σ(number of each index of diseased plants×disease index)/(number of plants surveyed×4)}×100
# Disease control value={1−(treatment disease severity/control disease severity)}×100
# 0: No adhesion of clubroot, 1: clubroot adhesion to lateral root, 2: clubroot adhesion to the entire lateral root or clubroot adhesion to a part of tap root, 3: adhesion of large clubroot to tap root, and 4: clubroot adhesion to the entire tap root.
# A spore suspension of Plasmodiophora brassicae was sprayed on the entire farm field by using a watering pot to have a fungus density of 1×10^4 fungi/g dry soil. In this farm field, a cabbage (variety: Okina) seedling grown in a cell seedling tray (128 cells/seedling box) was settled-planted by establishing two plantings for each test section containing ten plants (interplant distance: 30 cm, interrow space: 30 cm, planting in two rows). Just after the settled planting, 4 days, 7 days and 11 days after settled planting, the chemical solution for spraying prepared by the same method as in Example 1(1) was drenched into the soil in a ratio of 250 ml/plant. Seventy-seven days after the settled planting, the number of each index of clubroot adhesion to the root was investigated. For comparison, the same test was carried out on a control section where a soil drench treatment with the chemical solution for spraying was not applied.
# The test was carried out by the same method as in Example 2 except that in place of the soil drench treatment with the chemical solution for spraying, a chemical solution for spraying prepared by the same method as in Example 1(1) was sprayed on a cabbage (variety: Okina) seedling grown in a cell seedling tray (128 cells/seedling box) at a concentration of 2 liters/cell seedling tray by using a watering pot and these seedlings were settled-planted.
# The disease severity and disease control value of Example 2 and Comparative Example 2 were determined by the same methods as in Example 1 and Comparative Example 1. In addition, the weight of cabbage in the aerial part was measured. Furthermore, the test result was shown by the average value of two plantings.
# [1] = 50 ppm soil drench 250 ml/plant 4 days after settled planting
# [2] = 50 ppm soil drench 250 ml/plant 7 days after settled planting
# [3] = 50 ppm soil drench 250 ml/plant 11 days after settled planting
# [4] = 50 ppm soil drench 250 ml/plant just after settled planting
# [5] = 50 ppm solution sprayed on seedlings in cell tray, 2 liters/cell seedling tray, just before settled planting
structure (smiles),measurement,setting,value
"Cc1ccc(-c2c(Cl)nc(C#N)n2S(=O)(=O)N(C)C)cc1 [cyazofamid, 4-chloro-2-cyano-1-dimethylsulfamoyl-5-(4-methylphenyl)imidazole]",Weight in the aerial part,[1],666 g
same,Disease control value,[1],87
same,Disease severity,[1],7
same,Weight in the aerial part,[2],579 g
same,Disease control value,[2],30
same,Disease severity,[2],38
same,Weight in the aerial part,[3],563 g
same,Disease control value,[3],11
same,Disease severity,[3],48
same,Weight in the aerial part,[4],713 g
same,Disease control value,[4],44
same,Disease severity,[4],30
same,Weight in the aerial part,[5],745 g
same,Disease control value,[5],44
same,Disease severity,[5],30
